Tests used:
Format in all cases: in vivo, Male DBA/1O1aHsd mice
anti-collagen antibodies = experiment: CIA-EE (Example 1): anti-collagen antibody production; settings: measured day 21 and day 45, vs OA-EE placebo
Experimental: (§1) The appropriate ethyl esters were blended into the base diet to provide approximately 2500 and 5000 mg/kg polyunsaturated fatty acid (PUFA) per day. The human equivalent doses (HED) were approximately 12 g/day and 22 g/day, respectively. The 2500 mg/kg EE diets contained the following fat blend: 1 part flax, 12 parts HCOC and 23 parts HO-SAFF. The 5000 mg/kg EE diets contained a fat blend consisting of: 1 part flax, 5 parts HCOC and 20 parts HO-SAFF. All study diets provided a total of 7% fat. Animals were fed study diets for approximately 30 days prior to the first collagen injection at day 0 and remained on the diets until study termination (day 45). Animals in the No Disease control and Dexamethasone groups were fed the diet containing OA-EE. Following a second collagen injection on day 21, arthritis severity was scored daily. Blood samples were collected at day 21 and day 45. Joints, 6 per an animal, were collected for histology and pathology on day 45.
Anti-collagen antibody production was measured prior to the antigen challenge (day 21) and at study termination (day 45). […] Means (n=5)±SD. *p<0.05**p<0.01.

[1] = CIA EE vs. TG (Example 2): serum phospholipid fatty acid levels by FAME analysis
Experimental: Male DBA/1O1aHsd mice were enrolled, quarantined, and feed study diets following the protocols described in Example 1 (CIA-EE Study). EE and TG oils were blended into the base diet to provide 2500 mg/kg PUFA per day (HED approximately 12 g/day). A single dose of PUFA per day (HED approximately 5 g/day). The 1000 mg/kg DHA-EE dose was equivalent to the amount of DHA administered in the DHA/EPA-EE blend. The fat blend the 2500 mg/kg EE diets consisted of approximately: 1 part flax, 12 parts HCOC and 23 parts HO-SAFF; 1000 mg/kg EE diet: 1 part flax, 12 parts HCOC and 32 parts HO-SAFF; 2500 mg/kg DHASCO® oil diet: 1 part flax, 8 parts HCOC, 17 parts HO-SAFF and 15 parts soybean oil; 2500 mg/kg DHA-S oil diet: 1 part flax, 5 parts HCOC, 16 parts HO-SAFF and 6 parts soybean oil. 2500 mg/kg DHA/EPA (Nordic Naturals fish oil) diet: 1 part flax, 21 parts HCOC, 18 parts HO-SAFF and 13 parts soybean oil. The monounsaturate control animals received a fat blend of 1 part flax, 7 parts HCOC and 25 parts HO-SAFF. All study diets provided a total of 7% fat. Animals in the No Disease control and Dexamethasone groups were fed the diet containing OA-EE. Mice received collagen injections on day 0 and day 21, as described previously. Blood samples were collected at day 21 and day 45. At day 45, joints were collected for histology and pathology.
Serum phospholipid fatty acid levels were determined by FAME analysis (FIG. 11). Treatment with DHASCO® or DHA-S oil elevated serum DHA levels 3-4 fold (p<0.001), as compared to the monounsaturated (placebo) control. DHA-EE treatment elevated DHA levels 3-5 fold (p<0.001), as compared to the OA-EE (placebo) control. DPAn6-TG and EE elevated DPAn6 levels 3-4 fold (p<0.001), as compared to the monounsaturated or OA-EE (placebo) control. Serum EPA levels were elevated approximately 30 fold (p<0.001) when fish oil or DHA/EPA-EE was administered, as compared to the monounsaturated or OA-EE (placebo) control. Serum EPA levels were also elevated by treatment with DHASCO® (p<0.001), DHA-S (p<0.05), or with DHA-EE (p<0.001), as compared to the monounsaturated or OA-EE (placebo) control. […] Treatment with either DHASCO® or DHA-EE (2500 mg/kg) reduced ARA levels by approximately 90% (p<0.001), as compared to the monounsaturated or OA-EE (placebo) control. […] Serum ARA levels were reduced to a lesser degree by DHA-S (24%, p<0.001), fish oil (37%, p<0.001) and DHA/EPA-EE (49%, p<0.001), as compared to the monounsaturated or OA-EE (placebo) control. Data shown represents 3 pooled animals per group. Means±SD. *p<0.05 ***p<0.001.

[2] = CIA-EE (Example 1): serum phospholipid fatty acid levels by FAME analysis
Experimental: as §1
Serum phospholipid fatty acid levels were determined by FAME analysis (FIG. 5). Treatment with DHA-EE elevated serum DHA levels 3-4 fold, as compared the OA-EE (placebo) control, whereas DPAn6-EE elevated serum DPAn6 20-35 fold. Serum EPA levels were elevated when dosed with the DHA/EPA-EE blend 8-15 fold and 4-7 fold when dosed with DHA-EE, as compared to the OA-EE (placebo) control. […]

[3] = test system: Collagen-Induced Arthritis (CIA); experiment: CIA-EE (Example 1): paw, knee and six-joint histopathology; settings: day 45, vs OA-EE placebo, FIG. 4
Text: Male DBA/1O1aHsd mice (3.5-4 weeks of age) were randomized by weight and enrolled in the study after a three day quarantine in which animals were fed the AlN-93G diet with a modified base fat: 1 part flax seed oil (flax), 9 parts hydrogenated coconut oil (HCOC) and 21 parts high-oleic safflower oil (HO-SAFF). 15 animals were enrolled per study group, with the exception of the No Disease control that had 4 animals. Study groups consisted of:
as §1
Placebo-treated diseased animals had histopathology changes, consistent with those seen in type II collagen induced arthritis, in most joints, with scores ranging from normal to severe. Microscopic alteration included infiltration of synovium and periarticular tissue with neutrophils and mononuclear inflammatory cells (inflammation), marginal zone pannus and bone resorption and cartilage damage (proteoglycan loss, chondrocyte death and collagen matrix destruction). Four-paw, knee and joint parameters were assigned a quantitative score 0=normal, 1=minimal, 2=mild, 3=moderate, 4=marked, 5=severe and a total score was determined per animal.

For `CC/C=C\C/C=C\C/C=C\C/C=C\C/C=C\C/C=C\CCC(=O)OCC` [DHA-EE], the “level of plasma anti-collagen antibodies” value (anti-collagen antibodies; 2500 mg/kg) was “reduced the level of anti-collagen antibodies”, the “level of plasma anti-collagen antibodies” value (anti-collagen antibodies; 5000 mg/kg) was “reduced the level of anti-collagen antibodies” and the “serum ARA levels, reduction vs OA-EE (placebo) control” value ([1]; 1000 mg/kg) was 77%. For the same compound, the “serum ARA levels, reduction vs monounsaturated or OA-EE (placebo) control” value ([1]; 2500 mg/kg PUFA) was “approximately 90%”, the “serum EPA levels, elevation vs monounsaturated or OA-EE (placebo) control” value ([1]; 2500 mg/kg PUFA (DHA-EE dose not stated)) was “elevated” and the “serum DHA levels, elevation vs OA-EE (placebo) control” value ([1]; dose not stated (1000 and 2500 mg/kg tested)) was 3-5 fold. For the same compound, the “serum ARA levels, decrease vs OA-EE (placebo) control” value ([2]; 2500 mg/kg) was “approximately 90%”, the “serum ARA levels, decrease vs OA-EE (placebo) control” value ([2]; 5000 mg/kg) was “approximately 90%” and the knee histopathology parameters ([3]; 2500 mg/kg) was “significantly reduced”. The “paw histopathology parameters (inflammation, pannus, cartilage damage, bone damage)” value ([3]; 2500 mg/kg) was “significantly reduced”, the “six-joint mean histopathology parameters” value ([3]; 2500 mg/kg) was “significantly reduced” and the “paw histopathology parameters (inflammation, pannus, cartilage damage, bone damage)” value ([3]; 5000 mg/kg) was “reduced paw histopathology scores”. For the same compound, the “six-joint mean histopathology parameters” value ([3]; 5000 mg/kg) was “significantly reduced”.

From patent publication US20130137767A1, “Methods and Compositions for Treating Arthritis with Docosahexaenoic Acid” (DSM IP ASSETS B.V., priority 2010, published 2013)
